From US12269831B2, “Modulators of cystic fibrosis transmembrane conductance regulator” (Vertex Pharmaceuticals Incorporated, priority 2020, dated 2025)

The molecules below were run against T1, CFTR (F508del/MF-HBE cells) (Homo sapiens, UniProt P13569, DEL508-508) (assay: Ussing chamber assay of CFTR-mediated short-circuit currents (potentiator identification)). Details: CFTR-mediated Isc, 18-24 h incubation at 37° C. with 10 μM (14S)-8-[3-(2-{dispiro[2.0.2.1]heptan-7-yl}ethoxy)-1H-pyrazol-1-yl]-... corrector, 20% human serum.
T1 construct: human bronchial epithelial (HBE) cells derived from CF subjects heterozygous for F508del and a minimal function CFTR mutation (F508del/MF-HBE); endogenous in cells; host or cells: primary human bronchial epithelial (HBE) cells from CF subjects, genotype F508del/minimal function
T1 sequence (P13569 with tags, fused parts or gaps DEL508-508): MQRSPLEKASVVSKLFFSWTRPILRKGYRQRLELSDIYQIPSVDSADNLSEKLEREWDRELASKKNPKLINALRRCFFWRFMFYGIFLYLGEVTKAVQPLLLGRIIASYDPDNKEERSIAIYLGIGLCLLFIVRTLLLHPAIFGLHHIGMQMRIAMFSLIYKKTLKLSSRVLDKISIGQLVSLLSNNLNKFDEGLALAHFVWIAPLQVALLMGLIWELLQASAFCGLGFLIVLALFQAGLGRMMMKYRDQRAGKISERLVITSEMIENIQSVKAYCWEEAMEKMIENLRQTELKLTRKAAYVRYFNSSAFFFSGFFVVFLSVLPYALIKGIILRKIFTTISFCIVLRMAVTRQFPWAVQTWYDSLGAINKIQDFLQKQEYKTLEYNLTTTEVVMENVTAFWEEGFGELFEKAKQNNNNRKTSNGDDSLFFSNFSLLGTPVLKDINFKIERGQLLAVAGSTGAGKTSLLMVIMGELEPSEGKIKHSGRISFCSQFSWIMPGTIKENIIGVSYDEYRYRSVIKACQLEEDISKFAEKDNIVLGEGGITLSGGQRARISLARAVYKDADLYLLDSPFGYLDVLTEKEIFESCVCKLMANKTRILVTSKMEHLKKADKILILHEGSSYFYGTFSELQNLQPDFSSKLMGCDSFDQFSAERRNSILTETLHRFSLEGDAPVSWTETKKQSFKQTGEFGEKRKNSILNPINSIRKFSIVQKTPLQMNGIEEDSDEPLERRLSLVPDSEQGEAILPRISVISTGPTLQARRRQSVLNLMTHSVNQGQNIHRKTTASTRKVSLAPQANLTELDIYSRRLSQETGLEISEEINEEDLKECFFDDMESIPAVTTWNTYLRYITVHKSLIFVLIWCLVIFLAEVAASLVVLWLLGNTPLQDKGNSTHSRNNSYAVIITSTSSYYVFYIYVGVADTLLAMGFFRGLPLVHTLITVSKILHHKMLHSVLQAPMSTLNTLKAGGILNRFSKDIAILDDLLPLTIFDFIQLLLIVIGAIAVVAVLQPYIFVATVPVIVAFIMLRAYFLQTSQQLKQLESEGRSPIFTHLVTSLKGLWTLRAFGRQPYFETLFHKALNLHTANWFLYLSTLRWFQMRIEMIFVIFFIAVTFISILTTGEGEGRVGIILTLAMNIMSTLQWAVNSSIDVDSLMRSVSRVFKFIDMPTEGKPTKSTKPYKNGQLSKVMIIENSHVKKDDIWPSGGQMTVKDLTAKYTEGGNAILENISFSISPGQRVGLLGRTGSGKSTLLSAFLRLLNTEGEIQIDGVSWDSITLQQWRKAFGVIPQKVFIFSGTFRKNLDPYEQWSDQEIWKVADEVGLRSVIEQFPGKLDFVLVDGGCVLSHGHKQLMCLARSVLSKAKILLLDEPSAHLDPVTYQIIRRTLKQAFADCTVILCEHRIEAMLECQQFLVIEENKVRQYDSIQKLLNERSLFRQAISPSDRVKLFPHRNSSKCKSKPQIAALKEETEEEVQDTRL
Format: cell-based
Procedure: Ussing Chamber Assay of CFTR-Mediated Short-Circuit Currents
Ussing chamber experiments were performed using human bronchial epithelial (HBE) cells derived from CF subjects heterozygous for F508del and a minimal function CFTR mutation (F508del/MF-HBE) and cultured as previously described (Neuberger T, Burton B, Clark H, Van Goor F Methods Mol Biol 2011:741:39-54). After four days the apical media was removed, and the cells were grown at an air liquid interface for >14 days prior to use.
To isolate the CFTR-mediated short-circuit (Isc) current, F508del/MF-HBE grown on Costar® Snapwell™ cell culture inserts were mounted in an Ussing chamber and the transepithelial ISC was measured under voltage-clamp recording conditions (Vhold=0 mV) at 37° C. The basolateral solution contained (in mM) 145 NaCl, 0.83 K2HPO4, 3.3 KH2PO4, 1.2 MgCl2, 1.2 CaCl2, 10 Glucose, 10 HEPES (pH adjusted to 7.4 with NaOH) and the apical solution contained (in mM) 145 NaGluconate, 1.2 MgCl2, 1.2 CaCl2, 10 glucose, 10 HEPES (pH adjusted to 7.4 with NaOH) and 30 μM amiloride to block the epithelial sodium channel. Forskolin (20 μM) was added to the apical surface to activate CFTR, followed by apical addition of a CFTR inhibitor cocktail consisting of BPO, GlyH-101 and CFTR inhibitor 172 (each at 20 μM final assay concentration) to specifically isolate CFTR currents. The CFTR-mediated Isc (μA/cm^2) for each condition was determined from the peak forskolin response to the steady-state current following inhibition.
Identification of Potentiator Compounds
The activity of the CFTR potentiator compounds on the CFTR-mediated Isc was determined in Ussing chamber studies as described above. The F508del/MF-HBE cell cultures were incubated with the potentiator compounds at a range of concentrations in combination with 10 μM (14S)-8-[3-(2-{dispiro[2.0.2.1]heptan-7-yl}ethoxy)-1H-pyrazol-1-yl]-12,12-dimethyl-2λ^6-thia-3,9,11,18,23-pentaazatetracyclo[17.3.1.111,14.05,10]tetracosa-1(22),5,7,9,19(23),20-hexaene-2,2,4-trione for 18-24 hours at 37° C. and in the presence of 20% human serum. The concentration of potentiator compounds and (14S)-8-[3-(2-{dispiro[2.0.2.1]heptan-7-yl}ethoxy)-1H-pyrazol-1-yl]-12,12-dimethyl-2λ^6-thia-3,9,11,18,23-pentaazatetracyclo[17.3.1.111,14.05,10]tetracosa-1(22),5,7,9,19(23),20-hexaene-2,2,4-trione used during the 18-24 hours incubations was kept constant throughout the Ussing chamber measurement of the CFTR-mediated Isc to ensure compounds were present throughout the entire experiment. The efficacy and potency of the putative F508del potentiators was compared to that of the known Vertex potentiator, ivacaftor (N-[2,4-bis(1,1-dimethylethyl)-5-hydroxyphenyl]-1,4-dihydro-4-oxoquinoline-3-carboxamide).
In the case of `C[C@@H]1CCC(=O)CC[C@](O)(C(F)(F)F)C2=NN=C(O2)c2nc(c(C(F)(F)F)cc2N)O1` [Compound 26, (6R,12R)-17-amino-6-hydroxy-12-methyl-6,15-bis(trifluoromethyl)-13,19-dioxa-3,4,18-triazatricyclo[12.3.1.12,5]nonadeca-1(18),2,4,14,16-pentaen-9-one], the EC50 is reported as < 500 nM.
`C[C@@H]1CC2CC2CC[C@](O)(C(F)(F)F)C2=NN=C(O2)c2nc(c(C(F)(F)F)cc2N)O1` (single isomer, unassigned) [Compound 64] was tested, and the EC50 was < 500 nM.
`Nc1cc(C(F)(F)F)c2nc1-c1nnc(o1)[C@@](O)(C(F)(F)F)CCCCCC(Cc1ccc(F)cc1)O2` (single isomer, unassigned) [Compound 50] was tested, and the EC50 was < 500 nM.
With `C[C@@H]1CCCCC(O)C(O)(C(F)(F)F)C2=NN=C(O2)c2nc(c(C(F)(F)F)cc2N)O1` (single isomer, unassigned) [Compound 62] the EC50 was < 500 nM.
With `C[C@H]1Oc2nc(c(N)cc2C(F)(F)F)C2=NN=C(O2)[C@@](O)(C(F)(F)F)CCCCC1O` (single isomer, unassigned) [Compound 41] the EC50 was < 500 nM.
With `C[C@H]1CCCCC[C@](O)(C(F)(F)F)C2=NN=C(O2)c2nc(c(C(F)(F)F)cc2N)O1` [Compound 14, (6R,12S)-17-amino-12-methyl-6,15-bis(trifluoromethyl)-13,19-dioxa-3,4,18-triazatricyclo[12.3.1.12,5]nonadeca-1(18),2,4,14,16-pentaen-6-ol] the EC50 was < 500 nM.
For `Nc1cc(C(F)(F)F)c2nc1-c1nnc(o1)C(O)(C(F)(F)F)CCCCCCO2` (racemic) [Compound 4, 17-Amino-6,15-bis(trifluoromethyl)-13,19-dioxa-3,4,18-triazatricyclo[12.3.1.12,5]nonadeca-1(18),2,4,14,16-pentaen-6-ol], the EC50 was < 500 nM.
With `Nc1cc(C(F)(F)F)c2nc1-c1nnc(o1)[C@](O)(C(F)(F)F)CCCCCCO2` [Compound 6, (6S)-17-amino-6,15-bis(trifluoromethyl)-13,19-dioxa-3,4,18-triazatricyclo[12.3.1.12,5]nonadeca-1(18),2,4,14,16-pentaen-6-ol] the EC50 was > 1000 nM.
For `Nc1cc(C(F)(F)F)c2nc1-c1nnc(o1)[C@@](O)(C(F)(F)F)CCCCCC(CC1CC1)O2` (single isomer, unassigned) [Compound 48], the EC50 was < 500 nM.
With `CC(C)C1CCCCC[C@](O)(C(F)(F)F)C2=NN=C(O2)c2nc(c(C(F)(F)F)cc2N)O1` (single isomer, unassigned) [Compound 35] the EC50 was < 500 nM.
With `Nc1cc(C(F)(F)F)c2nc1-c1nnc(o1)[C@@](O)(C(F)(F)F)CCCCCC(CC1CC1)O2` (single isomer, unassigned) [Compound 47] the EC50 was < 500 nM.
In the case of `CC(C)C1CCCCC[C@](O)(C(F)(F)F)C2=NN=C(O2)c2nc(c(C(F)(F)F)cc2N)O1` (single isomer, unassigned) [Compound 34], the EC50 is reported as < 500 nM.
`Nc1cc(C(F)(F)F)c2nc1-c1nnc(o1)C(O)(C(F)(F)F)CCCCc1cc(F)cc(c1)O2` (single isomer, unassigned) [Compound 32, 20-amino-13-fluoro-6,18-bis(trifluoromethyl)-16,23-dioxa-3,4,21-triazatetracyclo[15.3.1.12,5.111,15]tricosa-1(21),2,4,11(22),12,14,17,19-octaen-6-ol] was tested, and the EC50 was > 1000 nM.
For `Nc1cc(C(F)(F)F)c2nc1-c1nnc(o1)C(O)(C(F)(F)F)CCCCc1cc(F)cc(c1)O2` (single isomer, unassigned) [Compound 31, 20-amino-13-fluoro-6,18-bis(trifluoromethyl)-16,23-dioxa-3,4,21-triazatetracyclo[15.3.1.12,5.111,15]tricosa-1(21),2,4,11(22),12,14,17,19-octaen-6-ol], the EC50 was < 500 nM.
With `OC1(C(F)(F)F)CCCCCCOc2nc(ccc2C(F)(F)F)C2=NN=C1O2` (racemic) [Compound 1, 6,15-bis(trifluoromethyl)-13,19-dioxa-3,4,18-triazatricyclo[12.3.1.12,5]nonadeca-1(17),2,4,14(18),15-pentaen-6-ol] the EC50 was > 1000 nM.
`Nc1cc(C(F)(F)F)c2nc1-c1nnc(o1)[C@@](O)(C(F)(F)F)CCCCCCS2(=O)=O` (single isomer, unassigned) [Compound 9] was tested, and the EC50 was < 500 nM.
`[2H]C1CC[C@@H](C)Oc2nc(c(N)cc2C(F)(F)F)C2=NN=C(O2)[C@@](O)(C(F)(F)F)CC1[2H]` (stereo partly drawn) [Compound 44, (6R,12R)-17-amino-8,9-dideuterio-12-methyl-6,15-bis(trifluoromethyl)-13,19-dioxa-3,4,18-triazatricyclo[12.3.1.12,5]nonadeca-1(17),2,4,14(18),15-pentaen-6-ol] was tested, and the EC50 was < 500 nM.
With `C[C@@H]1CC2CC2CC[C@](O)(C(F)(F)F)C2=NN=C(O2)c2nc(c(C(F)(F)F)cc2N)O1` (single isomer, unassigned) [Compound 63] the EC50 was < 500 nM.
For `C[C@@H]1CCC(O)CC[C@](O)(C(F)(F)F)C2=NN=C(O2)c2nc(c(C(F)(F)F)cc2N)O1` (single isomer, unassigned) [Compound 45], the EC50 was < 500 nM.
`Nc1cc(C(F)(F)F)c2nc1-c1nnc(o1)[C@@](O)(C(F)(F)F)CCCCC[C@H](CO)O2` [Compound 36, (6R,12R)-17-amino-12-(hydroxymethyl)-6,15-bis(trifluoromethyl)-13,19-dioxa-3,4,18-triazatricyclo[12.3.1.12,5]nonadeca-1(18),2,4,14,16-pentaen-6-ol] was tested, and the EC50 was < 500 nM.
For `OC1(C(F)(F)F)CCCCCCOc2nc(ccc2C(F)(F)F)C2=NN=C1O2` (single isomer, unassigned) [Compound 3, 6,15-bis(trifluoromethyl)-13,19-dioxa-3,4,18-triazatricyclo[12.3.1.12,5]nonadeca-1(17),2,4,14(18),15-pentaen-6-ol], the EC50 was > 1000 nM.
For `C[C@@H]1CCCCC(O)C(O)(C(F)(F)F)C2=NN=C(O2)c2nc(c(C(F)(F)F)cc2N)O1` (single isomer, unassigned) [Compound 57], the EC50 was < 500 nM.
For `CC1CCCCCC(O)(C(F)(F)F)C2=NN=C(O2)c2nc(c(C(F)(F)F)cc2N)O1` (centres unmarked) [Compound 7, 17-amino-12-methyl-6,15-bis(trifluoromethyl)-13,19-dioxa-3,4,18-triazatricyclo[12.3.1.12,5]nonadeca-1(18),2,4,14,16-pentaen-6-ol], the EC50 was < 500 nM.
For `C[C@H]1Oc2nc(c(N)cc2C(F)(F)F)C2=NN=C(O2)[C@@](O)(C(F)(F)F)CCCCC1O` (single isomer, unassigned) [Compound 40], the EC50 was < 500 nM.
`C[C@@H]1CCCC(O)C[C@](O)(C(F)(F)F)C2=NN=C(O2)c2nc(c(C(F)(F)F)cc2N)O1` (single isomer, unassigned) [Compound 53] was tested, and the EC50 was < 500 nM.
For `CC1CCCCCC(O)(C(F)(F)F)C2=NN=C(O2)c2nc(c(C(F)(F)F)cc2N)O1` (centres unmarked) [Compound 8, 17-amino-12-methyl-6,15-bis(trifluoromethyl)-13,19-dioxa-3,4,18-triazatricyclo[12.3.1.12,5]nonadeca-1(18),2,4,14,16-pentaen-6-ol], the EC50 was < 500 nM.
For `C[C@@H]1COCCC[C@](O)(C(F)(F)F)C2=NN=C(O2)c2nc(c(C(F)(F)F)cc2N)O1` [Compound 59, (6R,12R)-17-amino-12-methyl-6,15-bis(trifluoromethyl)-10,13,19-trioxa-3,4,18-triazatricyclo[12.3.1.12,5]nonadeca-1(18),2,4,14,16-pentaen-6-ol], the EC50 was > 1000 nM.
For `CC1(C)CCCC[C@](O)(C(F)(F)F)C2=NN=C(O2)c2nc(c(C(F)(F)F)cc2N)OC1` [Compound 61, (6R)-17-amino-11,11-dimethyl-6,15-bis(trifluoromethyl)-13,19-dioxa-3,4,18-triazatricyclo[12.3.1.12,5]nonadeca-1(18),2,4,14,16-pentaen-6-ol], the EC50 was < 500 nM.
In the case of `C[C@H]1CCCCC[C@@](O)(C(F)(F)F)C2=NN=C(O2)c2nc(c(C(F)(F)F)cc2N)O1` [Compound 13, (6S,12S)-17-amino-12-methyl-6,15-bis(trifluoromethyl)-13,19-dioxa-3,4,18-triazatricyclo[12.3.1.12,5]nonadeca-1(18),2,4,14,16-pentaen-6-ol], the EC50 is reported as < 500 nM.
